This is an account of results in US20100069443A1, “COMPOUND WITH BENZAMIDE SKELETON HAVING CYCLOOXYGENASE-1 (COX-1)-SELECTIVE INHIBITORY ACTIVITY” (National University Corporation Okayama University, priority 2006, published 2010).

Where two headings read alike, the source gives them in different places.

Data set [1] concerns acetic acid-induced writhing responses. Nature of the data set: Acetic acid writhing test (analgesic testing). The data set is classed as in vivo. The note with it: mice; for Number of writhing responses: counted for 10 minutes, average; for Analgesic effect, suppression of the number of writhing responses (in words): oral administration. As for the experimental part:
Analgesic testing was carried out via common mice-based acetic acid writhing test. Compounds were administered orally in amounts of 30 mg/kg to groups each consisting of 10 or 11 mice, and a substance that applies pain stimuli, i.e., a 0.7% acetic acid solution, was intraperitoneally administered 30 minutes thereafter (0.1 ml/10 g). The counting of mice-specific writhing responses was initiated 10 minutes after the administration of the acetic acid solution, and the counting was continued for 10 minutes. This test utilizes the fact that a distinct symptom of agony, that is a writhing response, occurs upon administration of a stimulatory substance, such as an acetic acid solution, to a mouse. […] When compound 1 was administered in amounts of 30 mg/kg, however, the number of writhing responses was 5 on average. When compound 1 was administered in amounts of 10 mg/kg, the number of writhing responses was 10 on average. When compound 14 was administered in amounts of 30 mg/kg, the number of writhing responses was 6 on average.
A general note: In writhing tests, fewer writhes than in controls are read as antinociception.

The subject of data set [2] is carrageenin-induced edema in footpads of hind paws. The experiment in a line: Carrageenin edema test (antiinflammatory testing). Format: in vivo, rat. Particulars: 30 mg/kg orally; 3 hours after administration of 1% carrageenin. As for the experimental part:
Antiinflammatory testing was carried out via a rat-based carrageenin edema test. Compounds were orally administered in amounts of 30 mg/kg to groups each consisting of 5 to 8 […], and an edema-inducing substance (a 1% carrageenin solution) was administered hypodermically to footpads of hind paws 1 hour later (0.1 ml/mouse). Edema thickness in the footpads of hind paws was measured 1, 2, and 3 hours thereafter.

For the next data set, the system named is gastric ulcer. Nature of the data set: Gastric ulcer formation. Particulars: 30 mg/kg orally, mice, 5 hours later. The data set is classed as in vivo. As for the experimental part:
Compound 1 was orally administered in amounts of 30 mg/kg to groups each consisting of 3 to 5 mice, mice were sacrificed with the use of ether 5 hours later, and the stomachs were extracted. The extracted stomachs were opened, each entire stomach was photographed using a stereoscopic microscope, and the lengths of the gastric ulcers were determined.

The target of another data set is T1, cyclooxygenase-1 (COX-1) (Ovis aries, UniProt P05979).
T1 construct: purchased Cayman 760111
T1 sequence (P05979 25-600): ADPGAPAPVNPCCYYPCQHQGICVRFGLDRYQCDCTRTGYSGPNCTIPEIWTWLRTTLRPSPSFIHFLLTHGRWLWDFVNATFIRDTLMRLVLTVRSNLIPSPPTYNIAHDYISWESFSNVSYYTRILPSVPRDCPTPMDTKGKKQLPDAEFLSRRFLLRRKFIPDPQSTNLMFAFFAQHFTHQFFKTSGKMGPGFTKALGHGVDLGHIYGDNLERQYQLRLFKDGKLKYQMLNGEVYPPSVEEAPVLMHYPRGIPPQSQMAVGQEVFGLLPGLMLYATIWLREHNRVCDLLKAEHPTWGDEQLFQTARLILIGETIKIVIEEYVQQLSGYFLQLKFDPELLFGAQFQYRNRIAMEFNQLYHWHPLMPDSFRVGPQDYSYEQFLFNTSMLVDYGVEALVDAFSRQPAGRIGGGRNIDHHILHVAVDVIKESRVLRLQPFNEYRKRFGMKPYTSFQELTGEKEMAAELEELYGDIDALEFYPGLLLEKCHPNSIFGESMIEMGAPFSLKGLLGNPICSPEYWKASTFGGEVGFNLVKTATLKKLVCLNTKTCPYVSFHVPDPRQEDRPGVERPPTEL
Nature of the data set: Cayman Cyclooxygenase Inhibitor Screening Assay Kit (760111), COX-1. The note with it: for inhibition at 100 µM: read-out: Inhibitory activity of 100 μM compound (%) COX-1. The data set is classed as biochemical.

Another data set concerns the target T2, cyclooxygenase 2 (COX-2) (Ovis aries, UniProt P79208).
T2 construct: purchased Cayman 760111
T2 sequence (P79208 17-603): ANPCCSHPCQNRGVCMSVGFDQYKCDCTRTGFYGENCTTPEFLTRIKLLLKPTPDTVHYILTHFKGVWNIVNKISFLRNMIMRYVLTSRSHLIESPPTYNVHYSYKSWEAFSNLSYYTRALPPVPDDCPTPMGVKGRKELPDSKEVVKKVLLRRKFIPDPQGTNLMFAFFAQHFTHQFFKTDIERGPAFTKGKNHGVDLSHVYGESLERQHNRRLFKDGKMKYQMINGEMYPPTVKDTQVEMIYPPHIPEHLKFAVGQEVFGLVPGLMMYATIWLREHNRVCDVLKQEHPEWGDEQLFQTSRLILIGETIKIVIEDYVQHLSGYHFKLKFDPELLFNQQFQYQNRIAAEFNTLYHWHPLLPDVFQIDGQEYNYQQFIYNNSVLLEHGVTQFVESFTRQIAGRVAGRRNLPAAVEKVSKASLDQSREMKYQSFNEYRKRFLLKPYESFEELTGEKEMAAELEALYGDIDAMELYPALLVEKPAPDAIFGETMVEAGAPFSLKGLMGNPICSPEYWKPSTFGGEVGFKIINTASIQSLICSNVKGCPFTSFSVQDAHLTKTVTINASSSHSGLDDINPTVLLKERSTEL
The experiment in a line: Cayman Cyclooxygenase Inhibitor Screening Assay Kit (760111), COX-2. The data set is classed as biochemical. Particulars: for inhibition at 100 µM: read-out: Inhibitory activity of 100 μM compound (%) COX-2.

The mark [3] stands for this setting: 10 mg/kg orally, 0.7% acetic acid i.p.
Where [4] appears, read: 30 mg/kg orally, 0.7% acetic acid i.p. 30 minutes later.

For the molecule `CC(=O)Oc1ccccc1C(=O)O` [Aspirin, aspirin, reference compound], the “Number of writhing responses” value in data set [1] (setting [3]) is 17. Moreover, in data set [1] (setting [4]), the “Number of writhing responses” value was 15. The “Inhibitory activity against edema (%)” value in data set [2] worked out at 16%. In the data set on gastric ulcer, the “Gastric ulcer formation (in words)” value is listed as “significant gastric ulcers” and the “Total length of gastric ulcer (mm)” value turned out to be 1.61 mm.
What is called IC50 is the concentration at which inhibition is half-maximal. A low value points to inhibition by little substance. As for `Nc1ccc(NC(=O)c2ccc(C(F)(F)F)cc2)nc1` [Compound 1], at cyclooxygenase-1 (COX-1), 1 µM corresponded to half-maximal inhibition (IC50) and the inhibition at 100 µM came to 98%. For the same molecule, at cyclooxygenase 2 (COX-2), the IC50 is > 100 µM and the inhibition at 100 µM came to 24%. Besides, the “Number of writhing responses” value in data set [1] (setting [3]) came to 10. In addition, in data set [1] (setting [4]), the “Number of writhing responses” value came to 5. Moreover, the “Analgesic effect, suppression of the number of writhing responses (in words)” value in data set [1] is recorded as “significantly suppresses”. Besides, in data set [2], the “Inhibitory activity against edema (%)” value amounted to 31%. Further, in the data set on gastric ulcer, the “Gastric ulcer formation (in words)” value is “not observed” and the “Total length of gastric ulcer (mm)” value came to 0.09 mm. Further, for the setting “1 g/kg intraperitoneally, 3 mice, observed for 10 days”, the Death of mice result is recorded as “did not die”.
As for `Nc1ccc(C(=O)Nc2ccc(C(F)(F)F)cn2)cc1` [Compound 14], on cyclooxygenase-1 (COX-1), half-maximal inhibition (IC50) was put at 30 µM and the inhibition at 100 µM is 65%. On cyclooxygenase 2 (COX-2), the IC50 is > 100 µM and the inhibition at 100 µM turned out to be 15%. In data set [1] (setting [4]), the “Number of writhing responses” value is on record as 6. Moreover, in data set [1], the “Analgesic effect, suppression of the number of writhing responses (in words)” value was “significantly suppresses”. In addition, in the data set with gastric ulcer, the “Gastric ulcer formation (in words)” value is “not observed” and the “Total length of gastric ulcer (mm)” value is listed as 0.01 mm. Besides, the Death of mice entry (300 mg/kg intraperitoneally, 5 mice, observed for 14 days) is on record as “did not die”.
